Data reported in patent US20040214851A1, “Compositions and methods for induction of opioid receptors” (3M Innovative Properties Company, priority 2003, published 2004).
Where two headings read alike, the source gives them in different places.

Experiments:
[1] = system: Opioid Growth Factor Receptor (OGFr); test: Induction of OGFr mRNA in human PBMCs (GeneChip microarray); type: cell-based
Experimental: (§1) Opioid receptor inducing compounds (ORICs) were dissolved in dimethyl sulfoxide (DMSO, Sigma Chemical Company) at 5 mM concentration. PBMCs were incubated for one hour in X-VIVO 20 medium (Cambrex Bio Science, Walkersville, Md.) at 37° C. in a 5% CO2 incubator prior to incubation with ORIC prepared in DMSO or with DMSO alone (as a control). The amount of DMSO was kept below 0.1% of the total incubation volume.
(§2) PBMCs were incubated for 15, 30, 60, 120 minutes with ORIC 1. […] DMSO-treated control samples were incubated for 1 hour, 2 hours, 5 hours, 9 hours, and 16 hours.
(§3) At the end of the specified incubation time, cells were lysed and total RNA extracted using the Qiagen RNeasy MidiKit (Qiagen, Inc., Valencia, Calif.). RNA was quantified using absorbance at 260. Quality of RNA was determined from the ratio of absorbance measured at OD260 and OD280 and from the ratio of 18S and 28S bands in RNA 6000 Nano Chip gels run on the Agilent 2100 Bioanalyzer (Agilent Technologies, Inc., Palo Alto, Calif.).
RNA was reverse transcribed to cDNA using a Superscript cDNA synthesis kit (Invitrogen Corporation, Carlsbad, Calif.) using an HPLC-purified T7-(dT)24 primer (Genset SA, Paris, France). Labeled cRNA was prepared from double-stranded cDNA by in vitro transcription using an Enzo BioArray High Yield RNA Transcript Labeling Kit in the presence of biotin-11-CTP and biotin-16-UTP (Enzo Diagnostics, Inc., Farmingdale, N.Y.), and purified using an RNeasy MiniKit (Qiagen, Inc.). 10 or 15 μg of biotinylated cRNA were fragmented and hybridized to HG-U95A or U133A GeneChip® arrays (Affymetrix, Santa Clara, Calif.) containing probe sets representing 12,000 genes (HG-U95A) or 22,000 genes (U133A). Chips were hybridized, washed, and stained according to the Affymetrix protocols.
(§4) Images were scanned using the Agilent Gene Array Scanner (Agilent Technologies, Inc., Palo Alto, Calif.), and processed using Affymetrix Microarray Suite (MS 4.0 or MS 5.0) software. The total fluorescence intensity of each image was scaled to 500 to enable comparison of different images. The image at each time point was analyzed relative to the appropriate control in order to calculate changes in expression for each gene. Changes in gene expression were deemed significant if the p value for detection and change in expression were <0.05.

μ-opioid receptor = test: Induction of μ-opioid receptor mRNA in human PBMCs (GeneChip microarray); type: cell-based
Experimental: as §1, §2, §3
RNA was reverse transcribed to cDNA using a Superscript cDNA synthesis kit (Invitrogen Corporation, Carlsbad, Calif.) using an HPLC-purified T7-(dT)24 primer (Genset SA, Paris, France). Labeled cRNA was prepared from double-stranded cDNA by in vitro transcription using an Enzo BioArray High Yield RNA Transcript Labeling Kit in the presence of biotin-11-CTP and biotin-16-UTP (Enzo Diagnostics, Inc., Farmingdale, N.Y.), and purified using an RNeasy MiniKit (Qiagen, Inc.). […]
as §4, with “Changes in gene expression were deemed significant if the p value for detection and change in expression were <0.05.” left out

[2] = system: melanoma cell line B16-F10; test: B16-F10 melanoma lung tumor model in C57/BL6 mice; type: in vivo; details: B16-F10 i.v.
Experimental: C57/BL6 mice are injected on Day 0 intravenously with melanoma cell line B16-F10 (5×10^5). On day 5 and lasting through day 19, mice are injected intraperitoneally every other day with either (a) PBS (control), (b) 10 mg/kg of ORIC2, (c) 10 mg/kg [Met^5]-enkephalin, or (d) both.
On Day 20, half the mice are sacrificed and the lungs are removed and weighed. Percent inhibition of lung tumor growth is determined according to the formula:
Placebo weight−Treatment weight×100 Placebo weight

lung cancer = test: Human subjects with lung cancer, tumor size by CT scan and survival; type: in vivo
Experimental: Human subjects with lung cancer are injected intravenously with a placebo (control), ORIC5 (10 mg/kg), or both ORIC5 (10 mg/kg) and OGF (1 mg/kg) three times a week for eight weeks. Tumor size is measured by CT scan.

[3] = human PBMCs, 5 μM ORIC 1 (FIG. 1), 1 μM ORIC 2, 5 μM ORIC 3, 0.1 μM ORIC 4, (FIG. 2)
[4] = human PBMCs, 1 μM ORIC 2, 5 μM ORIC 3, 0.1 μM ORIC 4, FIG. 3

CC(C)Cn1cnc2c(N)nc3ccccc3c21 [ORIC1, 1-(2-methylpropyl)-1H-imidazo[4,5-c]quinolin-4-amine]
induction of OGFr (mRNA) [1]: induction

CCOCc1nc2c(N)nc3c(c2n1CC(C)(C)O)CCCC3 [ORIC2, 4-amino-2-(ethoxymethyl)-α,α-dimethyl-6,7,8,9-tetrahydro-1H-imidazo[4,5-c]quinoline-1-ethanol]
induction of OGFr (mRNA) [1, 3]: induction | induction of the μ-opioid receptor (mRNA) (μ-opioid receptor; [4]): induction | inhibition of tumor growth in the lung ([2]; 10 mg/kg i.p. every other day, day 5 to 19, lungs weighed Day 20, vs placebo): increased inhibition of tumor growth in the lung | survival ([2]; monitored through Day 75, vs placebo): enhanced survival

CCCCc1nc2c(N)nc3ccccc3c2n1CCCCNS(C)(=O)=O [ORIC4, N-[4-(4-amino-2-butyl-1H-imidazo[4,5-c]quinolin-1-yl)butyl]methanesulfonamide]
induction of OGFr (mRNA) [1, 3]: induction | induction of the μ-opioid receptor (mRNA) (μ-opioid receptor; [4]): induction

Cc1nc2c(N)nc3c(c2n1CCCCNC(=O)N1CCOCC1)CCCC3 [ORIC5, N-[4-(4-amino-2-methyl-6,7,8,9,-tetrahydro-1H-imidazo[4,5-c]quinolin-1-yl)butyl]morpholine-4-carboxamide]
induction of OGFr (mRNA) [1]: induction | induction of the μ-opioid receptor (mRNA) (μ-opioid receptor): induction | tumor size by CT scan (lung cancer; i.v. three times a week for eight weeks, at eight weeks vs prior to treatment): measurably smaller | five-year survival rate (lung cancer; vs control group): greater
